Several values for one entry are separate records, joined by “and”; a condition that tells them apart may be missing. Equal values may be shown once. Read-outs that look alike come from different tables or passages of the source. Residues, ends and D or L forms follow the SMILES beside them. *: point of attachment. X1 = Cn1c2ccccc2c2ccnc(-c3ccc(/C=C/C(=O)*)cn3)c21
What was measured:
Assay type in all cases: cell-based, human
[1] = system: PC-3 prostate cancer cells; details: for PI (IC50,dark/IC50,light) PC-3: blue light 460 nm
Description: (§1) The effect of Ir-H, Ir-Me, Ru-H, and Ru-Me on cell viability was evaluated in the A549 lung cancer and PC-3 prostate cancer cell lines by MTT assays. PC-3 cells were specifically chosen due to their high expression levels of GRPR on their surface, allowing for further evaluation of the activity of the BN3-derived metallopeptides Ir-BN and Ru-BN.[38],[51] In contrast, A549 cells express low levels of GRPR.[52] MRC-5 fibroblasts were used as a nonmalignant cell model.[53]Table 3 reports the half maximal inhibitory concentration (IC50) values obtained after treating the cells either under dark conditions or upon exposure to blue light at a dose of 24.1 J cm^–2. The photocytotoxicity index (PI), defined as the IC50,dark/IC50,light, is provided for each compound.
(§2) Stock solutions of the complexes and metallopeptides were initially prepared at a concentration of 5 mM in DMSO and then diluted in sterile distilled water to achieve a final concentration of 1 mM, with a resulting DMSO concentration of 20% v/v. Cells were seeded into 96-well plates at a density of 2500 cells/well for A549, 3500 cells/well for PC-3, and 5500 cells/well for MRC-5. Following 24 h of incubation for attachment, cells were treated in triplicate with freshly prepared working solutions of the compounds in the culture medium at concentrations ranging from 0.001 to 100 μM. The maximum DMSO concentration in the working solutions was 2% (v/v). The working concentrations for each compound were adjusted based on their cytotoxicity. Following a 4 h incubation period to allow internalization of the compounds into the cells, the plates were kept in dark conditions or exposed to blue (460 nm) or red (655 nm) light for 1 h using an LED system (LuxLight), providing a total dose of 24.1 J cm^–2. All plates were incubated in the dark for an additional 43 h. Cells were then washed with phosphate-buffered saline (PBS), and 100 μL of fresh culture medium containing 10% of 3-[4,5-dimethylthiazol-2-yl]-2,5 diphenyl tetrazolium bromide (MTT) solution (0.5 mg/mL) (Sigma- Aldrich) was added to each well. After a 2 h incubation period, the formazan crystals were dissolved in DMSO, and the absorbance was measured at 570 nm using a Multiscan Plate Reader (Synergy 4, Biotek, Winooski, USA). The concentration causing a 50% reduction in cell viability (IC50) was determined for each compound with the Gen5 software (BioTek). At least three independent experiments were conducted for each compound.

MRC-5 fibroblasts = details: for PI (IC50,dark/IC50,light) MRC-5: blue light 460 nm
Description: as §1, §2

A549 lung cancer cells = details: for PI (IC50,dark/IC50,light) A549: blue light 460 nm
Description: as §1, §2

PC-3 cells = assay: Mitochondrial membrane potential, JC-10 flow cytometry; details: IC50,light 4 h, blue light 1 h, control 63.0 ± 10.6%
Description: Figure 12 Effect on mitochondria function. PC-3 cells were incubated with the indicated compounds at the corresponding IC50,light for 4 h at 37 °C and then exposed to blue light for 1 h. Cells incubated with the medium alone served as the negative control. (A) Confocal microscopy images of the cells. Nuclei were stained blue with Hoechst (λex: 350 nm; λem: 461 nm), and mitochondria were labeled with MitoTracker Red CMXRos (λex: 579 nm; λem: 599 nm). Insets show a 3× magnification of the cells. Scale bars represent 50 μm in 1× images and 20 μm in 3× images. (B) Flow cytometry analysis of the effect of the complexes on mitochondrial membrane potential. […] A decrease in the percentage of cells emitting orange fluorescence indicates a loss of MMP. p < 0.05 and ** p < 0.01 compared to control cells.
Flow cytometry analysis using the mitochondrial specific dye JC-10 confirmed this effect. The fluorescence of JC-10 undergoes a reversible change from green to orange as MMP increases, due to the formation of JC-10 aggregates within polarized mitochondria. This property allows for the simultaneous detection of healthy and depolarized mitochondria. In control cells, orange fluorescence emission corresponding to healthy mitochondria was detected in 63.0 ± 10.6% of cells (Figure 12B). […] Furthermore, the complexes’ ability to photocatalytically oxidize NADH, a primary electron donor for the mitochondrial electron transport chain, may contribute to the mitochondrial damage.
Flow cytometry assessment of the mitochondrial membrane depolarization: PC-3 cells were seeded on 12-well plates at a density of 100000 cells per well. 24 h later, cells were treated with the compounds as described above. Cells were subsequently harvested using trypsinization and incubated with JC-10 dye (Deltaclon) according to the manufacturer’s protocol. A Novocyte flow cytometer was employed to analyze the fluorescence emission of JC-10 in 10000 cells. Fluorescence was detected at 590 nm (FL2) to identify the percentage of cells with healthy mitochondria and at 529 nm (FL1) to determine the percentage of cells with depolarized mitochondria. Each compound was evaluated in three independent experiments, and the mean and standard deviation of the results were represented.

[2] = PC-3, 4 h incubation, blue light 1 h (460 nm, 24.1 J cm^–2), MTT after 48 h, read-out: IC50 PC-3 Light
[3] = PC-3, 4 h incubation, kept in the dark 1 h, MTT after 48 h, read-out: IC50 PC-3 Dark
[4] = MRC-5, 4 h incubation, blue light 1 h (460 nm, 24.1 J cm^–2), MTT after 48 h, read-out: IC50 MRC-5 Light
[5] = MRC-5, 4 h incubation, kept in the dark 1 h, MTT after 48 h, read-out: IC50 MRC-5 Dark
[6] = A549, 4 h incubation, blue light 1 h (460 nm, 24.1 J cm^–2), MTT after 48 h, read-out: IC50 A549 Light
[7] = A549, 4 h incubation, kept in the dark 1 h, MTT after 48 h, read-out: IC50 A549 Dark

Row | IC50 [1, 2] [µM] | IC50 [1, 3] [µM] | PI (IC50,dark/IC50,light) PC-3 ([1]; PC-3) | IC50 (A549 lung cancer cells; [6]) [µM] | IC50 (A549 lung cancer cells; [7]) [µM] | PI (IC50,dark/IC50,light) A549 (A549 lung cancer cells; A549) | Compound | IC50 (MRC-5 fibroblasts; [4]) [µM] | IC50 (MRC-5 fibroblasts; [5]) [µM] | PI (IC50,dark/IC50,light) MRC-5 (MRC-5 fibroblasts; MRC-5) | population of cells emitting JC-10 orange fluorescence (PC-3 cells) [%] | also measured
1 | 34.8 ± 4.3 | 70.4 ± 2.7 | 2.0 | 56.7 ± 1.6 | 67.8 ± 6.7 | 1.2 | Cn1c2ccccc2c2ccnc(-c3ccc(/C=C/C(=O)O)cn3)c21.[Cl-].[Cl-].[Ru+2].c1ccc(-c2ccccn2)nc1.c1ccc(-c2ccccn2)nc1 [Ru-H] | 43.5 ± 4.5 | 53.9 ± 5.4 | 1.2 | 28.2 ± 7.8 | PI (IC50,dark/IC50,red light) PC-3 ([1]; PC-3, red light 655 nm): 1.3; IC50 ([1]; PC-3, red light 1 h (655 nm, 24.1 J cm^–2), MTT after 48 h, read-out: IC50,redlight PC-3): 54.3 ± 4.7 µM; PI (IC50,dark/IC50,red light) MRC-5 (MRC-5 fibroblasts; MRC-5, red light 655 nm): 0.9; IC50 (MRC-5 fibroblasts; MRC-5, red light 1 h (655 nm, 24.1 J cm^–2), MTT after 48 h, read-out: IC50,redlight MRC-5): 62.3 ± 7.1 µM
2 | 0.0723 ± 0.031 | 1.17 ± 0.29 | 16.2 | 0.0334 ± 0.0068 | 0.471 ± 0.031 | 14.2 | COC(=O)/C=C/c1ccc(-c2nccc3c4ccccc4n(C)c23)nc1.[Cl-].[Ir+3].[c-]1ccccc1-c1ccccn1.[c-]1ccccc1-c1ccccn1 [Ir-Me] | 0.0313 ± 0.019 | 1.12 ± 0.31 | 35.8 | 21.2 ± 4.9 | 
3 |  |  | 4.1 |  |  | 5.4 | CC(C)C[C@H](NC(=O)[C@H](CC(C)C)NC(=O)[C@H](Cc1c[nH]cn1)NC(=O)CNC(=O)[C@@H](NC(=O)[C@H](C)NC(=O)[C@H](Cc1c[nH]c2ccccc12)NC(=O)[C@H](CCC(N)=O)NC(=O)[C@H](CC(N)=O)NC(=O)CNC(=O)[C@H](CC(C)C)NC(=O)[C@H](CCCNC(=N)N)NC(=O)[C@H](CCC(N)=O)NC(=O)/C=C/c1ccc(-c2nccc3c4ccccc4n(C)c23)nc1)C(C)C)C(N)=O [Ir-BN] (X1-QRLGNQWAVGHLL-NH2) |  |  | 2.8 | 16.0 ± 9.5 | IC50 ([1]; 4 h): 8.51 ± 0.8 µM; photoselectivity index (IC50,dark in nonmalignant cells/IC50,light in GRPR overexpressing cancer cells) ([1]; 24 h): 9.5; selectivity for PC-3 cells with respect to MRC-5 fibroblasts ([1]; after blue light): 3.4 fold; IC50 (MRC-5 fibroblasts; 4 h): 28.7 ± 5.9 µM; IC50,light in MRC-5, fold higher than that of Ir-H (MRC-5 fibroblasts; MRC-5, blue light): 4.4 fold; IC50,dark in MRC-5, fold higher than that of Ir-H (MRC-5 fibroblasts; MRC-5, dark): 2.1 fold; IC50 (A549 lung cancer cells; 4 h): 12.6 ± 1.3 µM
4 | 9.23 ± 0.63 | 32.2 ± 1.9 | 3.49 and 3.5 | 3.32 ± 1.1 | 35 ± 5.4 | 10.5 | Cn1c2ccccc2c2ccnc(-c3ccc(/C=C/C(=O)O)cn3)c21.[Cl-].[Ir+3].[c-]1ccccc1-c1ccccn1.[c-]1ccccc1-c1ccccn1 [Ir-H] | 6.46 ± 0.801 | 39.1 ± 2.4 | 6.1 | 16.6 ± 9.2 | 

Source: publication PMC11483813, “Bombesin-Targeted Delivery of β-Carboline-Based Ir(III) and Ru(II) Photosensitizers for a Selective Photodynamic Therapy of Prostate Cancer” (Inorganic Chemistry, 2024)
